{
  "source": "patent US12370210B2",
  "about": "“Carbon monoxide as a treatment for neurodegenerative disease” (The General Hospital Corporation, priority 2019, dated 2025)",
  "tested_on": "mouse MPTP toxin model",
  "experiment": "Mouse MPTP toxin model, striatal DA by HPLC and TH+ neuron counts after inhaled CO",
  "format": "in vivo",
  "from_the_text": "FIGS. 7A-C. Effect of single dose inhaled CO in the MPTP model. CO (225 ppm; 1 hr) or air (1 hr) administered 1 hr after MPTP or saline injection (normal control saline data not shown; no difference between groups in normal control animals). Animal sacrifice 5 days after MPTP. A. CO preserved striatal dopamine (DA) (P<0.03, t-test; 22 mice/grp). Striatal DA levels measured with HPLC, B. CO reduced loss of substantia nigra pars compacta (SNpc) tyrosine hydroxylase-positive (TH+) neurons. C. Stereological nigral TH+ neuron counts after CO treatment or air (P<0.05, t-test). Mean±std error.\nWe also employed a short-term regimen of the widely used^5253 MPTP toxin model in which DA loss ensues within 5-8 days of MPTP. We elected to initiate iCO treatment only after MPTP exposure in order to model protective treatment of human PD, which begins only after disease onset. We exposed mice to MPTP (40 mg/kg, i.p.)^54,55 or saline (study control) and then treated with a single dose of either iCO (225 ppm) or air (negative control) for 1 hr, for 4 total groups: 1) MPTP/CO (225 ppm; 1 hr), 2) MPTP/air (1 hr), 3) saline/CO (225 ppm; 1 hr), 4) saline/air (1 hr). Five days after MPTP exposure, we measured DA levels in the striata via HPLC and counted TH+ neurons in all groups. MPTP mice treated with CO had ˜46% higher DA levels than those treated with air (2-tailed t-test, p=0.028; FIG. 7A). […] Critically, for TH+ neurons, MPTP mice treated with iCO had ˜22% more TH+ neurons than those treated with air (p<0.05; FIGS. 7B-C).",
  "data": [
    {"smiles": "[C-]#[O+]", "note": "[CO, carbon monoxide]", "values": [
      {"measurement": "striatal DA levels higher than air-treated MPTP mice", "setting": "MPTP 40 mg/kg i.p., CO 225 ppm 1 hr, single dose 1 hr after MPTP, 5 days after MPTP, p=0.028", "result": "~46", "unit": "%"},
      {"measurement": "more TH+ neurons than air-treated MPTP mice", "setting": "MPTP 40 mg/kg i.p., iCO 225 ppm 1 hr, 5 days after MPTP, p<0.05", "result": "~22", "unit": "%"},
      {"measurement": "striatal DA levels in saline-treated mice", "setting": "saline instead of MPTP, iCO 225 ppm 1 hr, n=22 per group, p>0.05 vs air", "result": "97.0 ± 2.4", "unit": "pmol/mg"},
      {"measurement": "TH+ cell counts in saline-treated mice", "setting": "saline instead of MPTP, iCO 225 ppm 1 hr, p>0.05 vs air", "result": "7,437±545"}
    ]}
  ]
}
